Results reported in patent US4202898A, “Method of treating anxiety and depression” (priority 1978, dated 1980).
Where two headings read alike, the source gives them in different places.

Key:
[1] = 4 plates test (percentage of desinibition observed in the mouse); format: in vivo; conditions: for change in vivo at 1 mg/kg / change in vivo at 3 mg/kg / change in vivo at 10 mg/kg / change in vivo at 30 mg/kg: po, 1 h; for change in vivo at 1 mg/kg: read-out: percentage of desinibition (ACTIVITY, 1 mg/kg p.o.); for change in vivo at 3 mg/kg: read-out: percentage of desinibition (ACTIVITY, 3 mg/kg p.o.); for change in vivo at 10 mg/kg: read-out: percentage of desinibition (ACTIVITY, 10 mg/kg p.o.); for change in vivo at 30 mg/kg: 30 mg/kg p.o.
Procedure: This activity has been tested by the 4 plates test (Aron C. These de Medecine--Paris 1970; Boissier JR--Simon P. and Aron C., A new method for rapid screening of minor tranquillizers in mice, Europ. J. Pharmacol. 1968, 4, 145-151). The substances are administered in several doses (0.3, 1.0, 3.0, 10 and 30 mg/kg) per os, 60 minutes before the test.
The results, which give the percentage of desinibition observed in the mouse, are shown as Examples III-XVIII. At the same doses, the greater the percentage the higher the activity of the piperazine. The results for two known anxiolytic agents are set forth in Examples XIX and XX.

LD 50 toxicity, oral = conditions: in vivo, p.o., tested as hydrochlorides
[2] = mouse, 60 minutes before the test
[3] = mouse, 1 mg/kg p.o., 60 minutes before the test
[4] = mouse, 3 mg/kg p.o., 60 minutes before the test
[5] = mouse, 10 mg/kg p.o., 60 minutes before the test

With `OCCN1CCN(c2cccc(SC(F)(F)F)c2)CC1` [Example 3, [4-(3'-trifluoromethylthiophenyl)-piperazino]-ethanol] the “percentage of desinibition (ACTIVITY, 0.3 mg/kg p.o.)” value [1, 2] was “+118%”, the change in vivo at 1 mg/kg [1, 3] was 190% and the change in vivo at 3 mg/kg [1, 4] was 230%. For the same molecule, the change in vivo at 10 mg/kg [1, 5] was 335%, the change in vivo at 30 mg/kg [1, 2] was 248% and the LD50 (LD 50 toxicity, oral) was 500 mg/kg.
`OCCN1CCN(c2cccc(C(F)(F)F)c2)CC1` [Example 4] gave a change in vivo at 10 mg/kg [1, 5] of 174%, a change in vivo at 30 mg/kg [1, 2] of 226% and an LD50 (LD 50 toxicity, oral) of 740 mg/kg.
With `OCCN1CCN(c2cccc(OC(F)(F)F)c2)CC1` [Example 5] the change in vivo at 1 mg/kg [1, 3] was 8%, the change in vivo at 3 mg/kg [1, 4] was 9% and the change in vivo at 10 mg/kg [1, 5] was 14%. For the same molecule, the change in vivo at 30 mg/kg [1, 2] was 88% and the LD50 (LD 50 toxicity, oral) was 575 mg/kg.
In the case of `OCCN1CCN(c2cccc(Cl)c2)CC1` [Example 6], the change in vivo at 1 mg/kg [1, 3] is reported as 23%, the change in vivo at 3 mg/kg [1, 4] is reported as 50% and the change in vivo at 10 mg/kg [1, 5] is reported as 54%. It also gave an LD50 (LD 50 toxicity, oral) of 750 mg/kg.
`OCCN1CCN(c2ccccc2)CC1` [Example 7] gave a change in vivo at 1 mg/kg [1, 3] of 39%, a change in vivo at 3 mg/kg [1, 4] of 2% and an LD50 (LD 50 toxicity, oral) of 525 mg/kg.
For `CC(=O)OCCN1CCN(c2cccc(SC(F)(F)F)c2)CC1` [Example 8, (4-m-trifluoromethylthiophenyl-piperazino)-ethyl acetate], the “percentage of desinibition (ACTIVITY, 0.3 mg/kg p.o.)” value [1, 2] was “+27%”, the change in vivo at 1 mg/kg [1, 3] was 88% and the change in vivo at 3 mg/kg [1, 4] was 191%. It also gave a change in vivo at 10 mg/kg [1, 5] of 312%, a change in vivo at 30 mg/kg [1, 2] of 154% and an LD50 (LD 50 toxicity, oral) of 510 mg/kg.
`CC(=O)OCCN1CCN(c2cccc(C(F)(F)F)c2)CC1` [Example 9] showed a change in vivo at 1 mg/kg [1, 3] of 24%, a change in vivo at 3 mg/kg [1, 4] of 49% and a change in vivo at 10 mg/kg [1, 5] of 220%. For the same molecule, the change in vivo at 30 mg/kg [1, 2] was 156% and the LD50 (LD 50 toxicity, oral) was 925 mg/kg.
Work on `Nc1ccccc1C(=O)OCCN1CCN(c2cccc(C(F)(F)F)c2)CC1` [Example 11] yielded a change in vivo at 1 mg/kg [1, 3] of 35%, a change in vivo at 3 mg/kg [1, 4] of 63% and a change in vivo at 10 mg/kg [1, 5] of 182%. For the same molecule, the change in vivo at 30 mg/kg [1, 2] was 336% and the LD50 (LD 50 toxicity, oral) was 3000 mg/kg.
`COc1ccc(Cl)cc1C(=O)OCCN1CCN(c2cccc(C(F)(F)F)c2)CC1` [Example 12] gave a change in vivo at 10 mg/kg [1, 5] of 65% and an LD50 (LD 50 toxicity, oral) of 1800 mg/kg.
`CNC(=O)OCCN1CCN(c2cccc(SC(F)(F)F)c2)CC1` [Example 13] showed a change in vivo at 3 mg/kg ([1]; Mus musculus) of 49% and a change in vivo at 10 mg/kg ([1]; Mus musculus) of 152%.
Molecule `CN(C)C(=O)OCCN1CCN(c2cccc(SC(F)(F)F)c2)CC1` [Example 14] has a change in vivo at 1 mg/kg ([1]; Mus musculus) of 2% and a change in vivo at 10 mg/kg ([1]; Mus musculus) of 3%.
In the case of `CCCCNC(=O)OCCN1CCN(c2cccc(SC(F)(F)F)c2)CC1` [Example 15], the change in vivo at 1 mg/kg [1, 3] is reported as 3%, the change in vivo at 3 mg/kg [1, 4] is reported as 109% and the change in vivo at 10 mg/kg [1, 5] is reported as 64%.
With `O=C(Nc1ccccc1)OCCN1CCN(c2cccc(C(F)(F)F)c2)CC1` [Example 17] the change in vivo at 10 mg/kg [1, 5] was 9% and the change in vivo at 30 mg/kg [1, 2] was 30%.
With `O=C(Nc1ccccc1)OCCN1CCN(c2cccc(SC(F)(F)F)c2)CC1` [Example 18] the “percentage of desinibition (ACTIVITY, 0.3 mg/kg p.o.)” value [1, 2] was “+15%”, the change in vivo at 1 mg/kg [1, 3] was 23% and the change in vivo at 3 mg/kg [1, 4] was 63%. For the same molecule, the change in vivo at 10 mg/kg [1, 5] was 304% and the change in vivo at 30 mg/kg [1, 2] was 532%.
In the case of `CC(C)(C)C(=O)OCCN1CCN(c2cccc(SC(F)(F)F)c2)CC1` [Example 21], the change in vivo at 1 mg/kg [1, 3] is reported as 73%, the change in vivo at 3 mg/kg [1, 4] is reported as 122% and the change in vivo at 10 mg/kg [1, 5] is reported as 196%.
Work on `CNC1=Nc2ccc(Cl)cc2C(c2ccccc2)=[N+]([O-])C1` [chlordiazepozide, reference compound] yielded a change in vivo at 1 mg/kg [1, 3] of 43%, a change in vivo at 3 mg/kg [1, 4] of 86% and a change in vivo at 10 mg/kg [1, 5] of 24%.
Molecule `CCCC(C)(COC(N)=O)COC(N)=O` [meprobamate, reference compound] has a change in vivo at 3 mg/kg [1, 4] of 53%, a change in vivo at 10 mg/kg [1, 5] of 38% and a change in vivo at 30 mg/kg [1, 2] of 142%.
